The text below walks through data of US20180200232A1, “PHARMACEUTICAL COMPOSITIONS USEFUL FOR THE TREATEMENT OF TISSUE INJURY” (MedRegen, LLC, priority 2015, published 2018).

Series [1] has as its system renal allograft rejection. Briefly: mismatched kidney transplantation in miniature swine. It is filed as in vivo. The note with it: for Survival: one animal per value; for Creatinine (serum): at time of death; for effect on survival: drug alone; for post-operative day of death or euthanasia: single perioperative course. The text has this: Animals—SLA-identified donor and recipient swine (weight 50-80 kg) were obtained from Transplantation Biology Research Center of Massachusetts General Hospital, Boston, Mass. The immunogenetic characteristics of these swine have been described previously (30). Two-haplotype full MHC class I and class II mismatched donors and recipients were used for kidney transplantation. […] Institutional review board (Animal Care and Use Committee) approval was obtained for this study. All animal care and procedures were in compliance with the “Principles of Laboratory Animal Care” formulated by the National Society of Medical Research and the “Guide for the Care and Use of Laboratory Animals” prepared by the Institute of Laboratory Animal Resources, National Research Council, and published by the National Academies Press, revised 2011.
Kidney transplantation—The surgical procedure used for kidney transplantation has been described in Kirkman R L, et al. Transplantation in miniature swine. VI. Factors influencing survival of renal allografts. Transplantation 1979; 28: 18-23, the entire disclosure of which is herein incorporated by reference. Briefly, donor kidneys were flushed and persevered in cold saline for 3-6 h before reperfusion. The recipients underwent bilateral nephrectomy. […] The kidney transplantation was completed with a vesicoureteral anastomosis. An indwelling Silastic central venous catheter was placed surgically into the external or internal jugular vein. The catheter facilitated frequent blood sampling for in vitro assays and for monitoring of renal function and whole-blood Tacrolimus levels.
Rejection monitoring—Kidney function was monitored by serial serum creatinine levels. Serum creatinine and blood urea nitrogen levels were analyzed in the Phenotyping Laboratory of the Department of Comparative Medicine at Johns Hopkins. Biopsies were performed on transplant recipients using needle core biopsy via an open or percutaneous ultrasound-guided approach. Renal allograft rejection was defined as sustained rise in serum creatinine to >10 mg/dL or anuria (normal laboratory value for swine serum creatinine is 1-3 mg/dL).
Histopathological examination—Core needle biopsies or wedge biopsies were performed on renal allografts. Scoring of acute rejection was based on the Banff classification; see, e.g., Solez K, et al. Banff 07 classification of renal allograft pathology: Updates and future directions. Am J Transplant 2008; 8: 753-760, the entire disclosure of which is herein incorporated by reference. Masson trichrome staining was done according to standard protocols.
SLA-identified and -mismatched inbred miniature swine were subjected to bilateral nephrectomy and transplantation (FIG. 1B) as described in Sachs D H, et al. Transplantation in miniature swine. I. Fixation of the major histocompatibility complex. Transplantation 1976; 22: 559-567, the entire disclosure of which is herein incorporated by reference. […] VI. Factors influencing survival of renal allografts. Transplantation 1979; 28: 18-23, supra. Five experimental treatment groups were defined as follows, and each group received subcutaneous injections on days 0, 2, 4, 6, and 8 post-transplantation: (1) saline (n=1); (2) low-dose (0.03 mg/kg) Tacrolimus alone (n=3); (3) AMD3100 1 mg/kg alone (n=3); (4) AF Combination treatment (AMD3100 1 mg/kg and Tacrolimus 0.03 mg/kg) (n=1); and (5) AF Combination treatment as in group 4 but with repeat of the 8-day course at 1, 2, and 3 months post-transplantation.

The test system of series [2] is colony forming cells (CFCs) in mobilized peripheral blood. The series can be described thus: CFC assay for stem cell mobilization activity in mice. It is filed as in vivo, C57/B6 mice. The note with it: peripheral blood 3 hours after drug treatment; AMD3100 1.0 mg/kg, Tacrolimus 0.1 mg/kg; vs saline (FIG. 1). The text has this: Hematopoietic colony-forming cell (CFC) assays have been used extensively for research and clinical applications in humans and animal models as a way of quantifying and assessing the hematopoietic progenitor content of a cell sample. The stem cell mobilization activity can be measured by using CFC assays in mobilized peripheral blood samples. CFCs are able to divide and differentiate into a colony of more mature cells that can be detected by light microscopy. This allows for the quantification of multipotent stem cell lineages mobilized by pharmaceutical agents.
C57/B6 mice were divided into four treatment groups: 1) control group treated with saline; 2) AMD3100 group (1.0 mg/kg); (3) Tacrolimus group treated with
low-dose (0.1 mg/kg); and (4) AF Combination (containing AMD3100 and Tacrolimus). […] Viable PBMCs were counted and mixed with Methocult GF methylcellulose medium (StemCell Technologies, Vancouver, BC, Canada; Cat.: 03444) containing 100 Uml penicillin and 100 μg/ml streptomycin to give a final density of 1×10^5 viable PBMCs/1.5 ml of medium. […] Colony-forming units (CFUs) were counted using an inverted microscope (Carl Zeiss Microscopy, Thornwood, N.Y.) at ×4. The number of CFUs was determined by dividing the number of viable cells per milliliter by the number of plated cells per well and multiplying by the number of counted CFUs/well.

Series [3] is described as follows: solubility of Tacrolimus powder in water solutions. The series is classed as physicochemical.
Series [4] concerns the target CXCR4 chomokin receptor (Homo sapiens, UniProt P61073). The following applies: read-out: IC50, binds to and inhibits the CXCR4 receptor; cited from earlier work.
Series [5] concerns cell migration stimulated by CXCL12. The following applies: cited from earlier work.

“And” between values parts separate entries of the source, which are not always exact repeats. Equal values may be shown once.

Sequence of CXCR4 chomokin receptor (P61073 whole entry): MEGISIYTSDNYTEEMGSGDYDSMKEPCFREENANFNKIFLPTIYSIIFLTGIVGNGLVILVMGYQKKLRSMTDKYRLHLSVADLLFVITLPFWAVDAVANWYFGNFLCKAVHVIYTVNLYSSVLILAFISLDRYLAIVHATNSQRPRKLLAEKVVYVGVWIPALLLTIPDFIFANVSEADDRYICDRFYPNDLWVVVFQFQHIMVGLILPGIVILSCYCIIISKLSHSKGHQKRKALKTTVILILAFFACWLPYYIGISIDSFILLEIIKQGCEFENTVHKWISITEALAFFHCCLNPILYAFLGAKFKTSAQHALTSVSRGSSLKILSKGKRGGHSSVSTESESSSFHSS

`C=CC[C@@H]1/C=C(\C)C[C@H](C)C[C@H](OC)[C@H]2O[C@@](O)(C(=O)C(=O)N3CCCC[C@H]3C(=O)O[C@H](/C(C)=C/[C@@H]3CC[C@@H](O)[C@H](OC)C3)[C@H](C)[C@@H](O)CC1=O)[C@H](C)C[C@@H]2OC` [Tacrolimus]: the Survival was 56 days in series [1] (Re-Treatment Yes); 28 days and 27 days in series [1] (no re-treatment, s.c. days 0, 2, 4, 6, 8, listed as Tacro only). In addition, the serum creatinine level is reported as 8.3 mg/dL in series [1] (animal 21343, POD 40 after repeat dosing); 9.8 mg/dL in series [1] (animal 21343, POD 56); 12.3 mg/dL in series [1] (animal 21343, before effect of repeat dosing at 1 month). The “Creatinine (serum)” value in series [1] (Re-Treatment Yes) was 9.8 mg/dL; in series [1] (no re-treatment, listed as Tacro only), 11.5 mg/dL and 9.9 mg/dL. Further, the effect on survival result is on record as “prolongation of survival” in series [1] and “prolonged survival but was ineffective against late rejection” in series [1] (listed as FK506). The “post-operative day of death” value in series [1] (redosing at 30 days) stood at 56 POD. In addition, in series [1], the “post-operative day of death or euthanasia” value is 27 POD and 28 POD. Besides, the “number of colony forming cells (CFCs)” value in series [2] is listed as “significantly increased”. In series [3], the “solubility in water solutions (e.g., saline)” value was “poor solubility”.
A word on the IC50: it is the concentration that inhibits the measured activity by half. For the compound 4F-benzoyl-TN14003 [BKT140], the concentration for half-maximal inhibition (IC50) in series [4] is around 1 nM.
For the compound `c1cc(CN2CCCNCCNCCCNCC2)ccc1CN1CCCNCCNCCCNCC1` [AMD3100, 1,1′-[1,4-phenylenebis(methylene)]bis¬1,4,8,11-tetraazacyclo-tetradecane], the “Creatinine (serum)” value in series [1] (no re-treatment, listed as AMD3100 only) is 22.3 mg/dL and 17.3 mg/dL and 26.4 mg/dL. For the same compound, in series [1], the effect on survival result is listed as “no prolongation of survival”; the “post-operative day of death or euthanasia” value is 9 POD and 10 POD and 16 POD. In addition, the Survival in series [1] (no re-treatment, s.c. days 0, 2, 4, 6, 8, listed as AMD3100 only) is 10 days and 16 days and 9 days. Besides, in series [5], the IC50 was 51 ± 17 nM. Moreover, the “number of colony forming cells (CFCs)” value in series [2] is reported as “significantly increased”.
